From patent US20230346670A1, “Prebiotic Oral Care Compositions and Methods” (Colgate-Palmolive Company, priority 2020, published 2023)

Experiments:
Format in all cases: cell-based
[1] = system: A. viscosus; test: Multi-species biofilm composition, absolute abundance (Geq/mL); settings: for absolute abundance of A. viscosus (Av), mean ± SD log (Geq/mL): repeated rinsing
Method: (§1) Biofilms are grown vertically on Calcium Deficient Hydroxyapatite (CAD-HA) disks (Hitemco Medical, Old Bethpage, USA) using the Amsterdam Active Adhesion model. Biofilms are allowed to establish during 24 h (37° C., 170 rpm) under microaerophilic conditions (6% O2, 7% CO2, 7% H2, 80% N2). After this 24 h, disks are rinsed 3 times a day for 3 minutes (RT, 250 rpm), for 3 consecutive days, by transferring the lid containing the disks to a new 24-well plate containing 2 mL/well of the appropriate substrate solution. As a negative control, PBS (pH 5.7) without substrate supplementation is used.
(§2) N-acetyl-D-glucosamine (NADG), α-D-lactose, D-(+)-trehalose and D-(+)-raffinose are selected to determine their effects on multi-species biofilm composition. […] decrease in absolute numbers in at least four of the pathogenic bacterial species tested in the assay, in comparison to the control, the results of which are described in Table 1 below. Note, NADG decreased absolute numbers of S. sobrinus. Absolute abundances of bacterial species are shown as mean ± SD (n = 3) logarithmic values of the genome equivalents per millilitre (log(Geq/mL)).

[2] = system: F. nucleatum; test: as above; settings: repeated rinsing
Method: as §1, §2

[3] = system: S. mutans; test: as above; settings: repeated rinsing
Method: as §1, §2

[4] = system: S. salivarius; test: as above; settings: repeated rinsing
Method: as §1, §2

[5] = system: S. sanguinis; test: as above; settings: repeated rinsing
Method: as §1, §2

[6] = system: V. parvula; test: as above; settings: for absolute abundance of V. parvula (VP), mean ± SD log (Geq/mL): repeated rinsing
Method: as §1, §2

[7] = system: A. actinomycetemcomitans; test: as above; settings: repeated rinsing
Method: as §1
(§3) N-acetyl-D-glucosamine (NADG), α-D-lactose, D-(+)-trehalose and D-(+)-raffinose are selected to determine their effects on multi-species biofilm composition. Repeated rinsing of the biofilms with the substrates at a concentration of 1 M results in a significant decrease in absolute numbers in at least four of the pathogenic bacterial species tested in the assay, in comparison to the control, the results of which are described in Table 1 below. Note, NADG decreased absolute numbers of S. sobrinus. Absolute abundances of bacterial species are shown as mean ± SD (n = 3) logarithmic values of the genome equivalents per millilitre (log(Geq/mL)).

[8] = system: A. naeslundii; test: as above; settings: repeated rinsing
Method: as §1, §3

[9] = system: P. gingivalis; test: as above; settings: repeated rinsing
Method: as §1, §3

[10] = system: P. intermedia; test: as above; settings: repeated rinsing
Method: as §1, §3

[11] = system: S. gordonii; test: as above; settings: repeated rinsing
Method: as §1, §3

[12] = system: S. mitis; test: as above; settings: repeated rinsing
Method: as §1, §3

[13] = system: S. oralis; test: as above; settings: repeated rinsing
Method: as §1, §3

[14] = system: S. sobrinus; test: as above; settings: repeated rinsing
Method: as §1, §3

[15] = system: A. actinomycetemcomitans virulence genes; test: Virulence gene expression in multi-species biofilm (SYBR RT-qPCR)
Method: as §1
(§4) The virulence of the substrate-treated multi-species biofilms are evaluated by analyzing the relative expression of 33 genes that are recognized as being related to some form of virulence and from 4 periodontal pathogens.
(§5) Expression of bacterial virulence genes is analyzed through SYBR RT-qPCR and normalized for bacterial housekeeping gene expression. […] These effects are illustrated in Tables 6a and 6b:
(§6) Note, for Tables 6a and 6b, that fold changes in virulence gene expression are determined relative to the control condition through the 2^^-ΔΔCt method and are shown as the geometric mean (C.I.) (n = 3) of the 2^^-ΔΔ ^Ct values. All substrates are dissolved in PBS at a concentration of 1 M (upper part) or 1%(w/v) (lower part). Values between 0 and 1 represent relative downregulation, values >1 represent relative upregulation. […] NADG: N-acetyl-D-glucosamine; C.I.: 95% confidence interval.

[16] = system: P. gingivalis virulence genes; test: as above; settings: relative to control, 2^-ΔΔCt, n = 3
Method: as §1, §4, §5, §6

[17] = lower part of Table 6a, substrate 1%(w/v), relative to control = 1
[18] = substrate 1 M, relative to control = 1, 2^-ΔΔCt, n = 3

OC[C@H]1O[C@H](O[C@H]2O[C@H](CO)[C@@H](O)[C@H](O)[C@H]2O)[C@H](O)[C@@H](O)[C@@H]1O [D-trehalose, D-(+)-trehalose]
absolute abundance of A. viscosus (Av), mean ± SD log (Geq/mL) ([1]; substrate 1% (w/v)): 8.04 ± 0.28 log (Geq/mL) | decrease in A. viscosus numbers in comparison to the control ([1]; substrate 1 M): 1.9-2.5 log(Geq/mL) | absolute abundance of A. viscosus (Av), mean ± SD log (Geq/mL) ([1]; substrate 1 M in PBS, n = 3): 6.05 ± 1.12^∗ log (Geq/mL) | absolute abundance of F. nucleatum (Fn), mean ± SD log (Geq/mL) ([2]; substrate 1% (w/v)): 9.35 ± 0.20 log (Geq/mL) | absolute abundance of F. nucleatum (Fn), mean ± SD log (Geq/mL) ([2]; substrate 1 M in PBS, n = 3): 6.51 ± 0.43^∗ log (Geq/mL) | absolute abundance of S. mutans, mean ± SD log (Geq/mL) ([3]; substrate 1% (w/v)): 7.55 ± 0.25 log (Geq/mL) | absolute abundance of S. mutans, mean ± SD log (Geq/mL) ([3]; substrate 1 M in PBS, n = 3): 8.50 ± 0.29^∗ log (Geq/mL) | absolute abundance of S. salivarius, mean ± SD log (Geq/mL) ([4]; substrate 1% (w/v)): 2.65 ± 0.00 log (Geq/mL) | absolute abundance of S. salivarius, mean ± SD log (Geq/mL) ([4]; substrate 1 M in PBS, n = 3): 6.19 ± 0.07^∗ log (Geq/mL) | absolute abundance of S. sanguinis, mean ± SD log (Geq/mL) ([5]; substrate 1% (w/v)): 8.42 ± 0.43 log (Geq/mL) | absolute abundance of S. sanguinis, mean ± SD log (Geq/mL) ([5]; substrate 1 M in PBS, n = 3): 6.43 ± 0.97 log (Geq/mL) | absolute abundance of V. parvula (VP), mean ± SD log (Geq/mL) ([6]; substrate 1% (w/v)): 10.07 ± 0.28 log (Geq/mL) | reduction of V. parvula numbers in comparison to the control ([6]; substrate 1 M): ~ 0.7 log(Geq/mL) | absolute abundance of V. parvula (VP), mean ± SD log (Geq/mL) ([6]; substrate 1 M in PBS, n = 3): 9.44 ± 0.25^∗ log (Geq/mL) | absolute abundance of A. actinomycetemcomitans (Aa), mean ± SD log (Geq/mL) ([7]; substrate 1% (w/v)): 9.28 ± 0.43 log (Geq/mL) | absolute abundance of A. actinomycetemcomitans (Aa), mean ± SD log (Geq/mL) ([7]; substrate 1 M in PBS, n = 3): 7.86 ± 0.22^∗ log (Geq/mL) | absolute abundance of A. naeslundii (An), mean ± SD log (Geq/mL) ([8]; substrate 1% (w/v)): 7.6 ± 0.15 log (Geq/mL) | absolute abundance of A. naeslundii (An), mean ± SD log (Geq/mL) ([8]; substrate 1 M in PBS, n = 3): 4.81 ± 0.47^∗ log (Geq/mL) | absolute abundance of P. gingivalis (Pg), mean ± SD log (Geq/mL) ([9]; substrate 1% (w/v)): 7.05 ± 0.19 log (Geq/mL) | absolute abundance of P. gingivalis (Pg), mean ± SD log (Geq/mL) ([9]; substrate 1 M in PBS, n = 3): 4.37 ± 0.29^∗ log (Geq/mL) | absolute abundance of P. intermedia (Pi), mean ± SD log (Geq/mL) ([10]; substrate 1% (w/v)): 7.88 ± 0.33 log (Geq/mL) | absolute abundance of P. intermedia (Pi), mean ± SD log (Geq/mL) ([10]; substrate 1 M in PBS, n = 3): 4.47 ± 0.60^∗ log (Geq/mL) | absolute abundance of S. gordonii, mean ± SD log (Geq/mL) ([11]; substrate 1% (w/v)): 8.45 ± 0.27 log (Geq/mL) | absolute abundance of S. gordonii, mean ± SD log (Geq/mL) ([11]; substrate 1 M in PBS, n = 3): 9.39 ± 0.31 log (Geq/mL) | absolute abundance of S. mitis, mean ± SD log (Geq/mL) ([12]; substrate 1% (w/v)): 2.65 ± 0.00 log (Geq/mL) | absolute abundance of S. mitis, mean ± SD log (Geq/mL) ([12]; substrate 1 M in PBS, n = 3): 3.15 ± 0.71 log (Geq/mL) | absolute abundance of S. oralis, mean ± SD log (Geq/mL) ([13]; substrate 1% (w/v)): 6.59 ± 0.42 log (Geq/mL) | absolute abundance of S. oralis, mean ± SD log (Geq/mL) ([13]; substrate 1 M in PBS, n = 3): 6.71 ± 0.48 log (Geq/mL) | absolute abundance of S. sobrinus, mean ± SD log (Geq/mL) ([14]; substrate 1% (w/v)): 5.27 ± 0.19 log (Geq/mL) | absolute abundance of S. sobrinus, mean ± SD log (Geq/mL) ([14]; substrate 1 M in PBS, n = 3): 7.44 ± 0.18^∗ log (Geq/mL) | fold change in aae expression, geometric mean (95% C.I.) [15, 17]: 0.95 (0.33-2.78) fold | fold change in apaH expression, geometric mean (95% C.I.) [15, 17]: 0.64 (0.37-1.10) fold | fold change in cdtB expression, geometric mean (95% C.I.) [15, 17]: 0.67 (0.51-0.89) fold | fold change in emaA expression, geometric mean (95% C.I.) [15, 17]: 0.67 (0.49-0.90) fold | fold change in flp expression, geometric mean (95% C.I.) [15, 17]: 0.48 (0.07-3.50) fold | fold change in ltxA expression, geometric mean (95% C.I.) [15, 17]: 0.08 (0.01-0.73)^∗ fold | fold change in omp29 expression, geometric mean (95% C.I.) [15, 17]: 0.51 (0.19-1.34)^∗ fold | fold change in omp100 expression, geometric mean (95% C.I.) [15, 17]: 0.43 (0.26-0.72)^∗ fold | fold change in orf859 expression, geometric mean (95% C.I.) [15, 17]: 1.04 (0.53-2.03) fold | fold change in pgA expression, geometric mean (95% C.I.) [15, 17]: 0.91 (0.81-1.03) fold | fold change in vapA expression, geometric mean (95% C.I.) [15, 17]: 1.02 (0.87-1.21) fold | fold change in vppA expression, geometric mean (95% C.I.) [15, 17]: 0.48 (0.42-0.55)^∗ fold | fold change in aae expression, geometric mean (95% C.I.) [15, 18]: 0.03 (0.01-0.15)^∗ fold | fold change in apaH expression, geometric mean (95% C.I.) [15, 18]: 0.16 (0.04-0.56)^∗ fold | fold change in cdtB expression, geometric mean (95% C.I.) [15, 18]: 0.08 (0.03-0.21)^∗ fold | fold change in emaA expression, geometric mean (95% C.I.) [15, 18]: 0.11 (0.04-0.32)^∗ fold | fold change in flp expression, geometric mean (95% C.I.) [15, 18]: 0.71 (0.30-1.67) fold | fold change in ltxA expression, geometric mean (95% C.I.) [15, 18]: 0.01 (0.00-0.01)^∗ fold | fold change in omp29 expression, geometric mean (95% C.I.) [15, 18]: 0.74 (0.18-3.00) fold | fold change in omp100 expression, geometric mean (95% C.I.) [15, 18]: 0.09 (0.01-1.11)^∗ fold | fold change in orf859 expression, geometric mean (95% C.I.) [15, 18]: 0.14 (0.02-0.87)^∗ fold | fold change in pgA expression, geometric mean (95% C.I.) [15, 18]: 18.24 (5.89-56.51)^∗ fold | fold change in vapA expression, geometric mean (95% C.I.) [15, 18]: 0.32 (0.08-1.26)^∗ fold | fold change in vppA expression, geometric mean (95% C.I.) [15, 18]: 0.32 (0.01-4.50)^∗ fold | fold change in pgA expression, geometric mean (95% C.I.) ([15]; substrate 1 M, relative to control = 1, 2^-ΔΔCt, n = 3, listed as D-(+)-trehalose): 18.2 fold | fold change in fimA expression, geometric mean (95% C.I.) ([16]; substrate 1 % (w/v)): 1.58 (0.86-2.90) fold | fold change in kgp expression, geometric mean (95% C.I.) ([16]; substrate 1 % (w/v)): 3.24 (1.63-6.44)^∗ fold | fold change in partC expression, geometric mean (95% C.I.) ([16]; substrate 1 % (w/v)): 0.71 (0.37-1.35) fold | fold change in rgpA expression, geometric mean (95% C.I.) ([16]; substrate 1 % (w/v)): 1.49 (0.69-3.22) fold | fold change in kgp expression, geometric mean (95% C.I.) ([16]; substrate 1 % (w/v), listed as D-(+)-trehalose): approximately 3.2 fold | fold change in fimA expression, geometric mean (95% C.I.) ([16]; substrate 1 M): 0.13 (0.02-0.96)^∗ fold | fold change in kgp expression, geometric mean (95% C.I.) ([16]; substrate 1 M): <LOD | fold change in partC expression, geometric mean (95% C.I.) ([16]; substrate 1 M): 0.03 (0.00-0.49)^∗ fold | fold change in rgpA expression, geometric mean (95% C.I.) ([16]; substrate 1 M): 0.00 (0.00-0.02)^∗ fold
